# Read-outs that look alike come from different tables or passages of the source.
# Legend:
# JNK1 = JNK1 (Homo sapiens, UniProt P45983); test: KINOMEscan competition binding assay, JNK1; parameters: M1/Q384; host or cells: HEK-293; conditions: ratio PoC (off-target)/PoC (MKK4)
# Procedure: (§1) The assay was performed by combining three components: DNA-tagged kinase; immobilized ligand; and a test compound. The ability of the test compound to compete with the immobilized ligand was measured via quantitative PCR of the DNA tag. The technology is described in detail in Fabian, M. A. et al. A small molecule-kinase interaction map for clinical kinase inhibitors. Nat. […] Nat.
# (§2) For investigation of the affinity to MKK4, BRaf, MKK7 and JNK1, the kinases were produced in HEK-293 cells and subsequently tagged with DNA for qPCR detection. […] The liganded beads were blocked with excess biotin and washed with blocking buffer (SEABLOCK™ (Pierce), 1% BSA, 0.05% TWEEN®20, 1 mM DTT) to remove unbound ligand and to reduce nonspecific binding. […] All reactions were performed in polystyrene 96-well plates in a final volume of 0.135 mL. […] The kinase concentration in the eluates was measured by qPCR.
# (§3) The test compounds were provided as 10 mM stock solutions. The test solutions at indicated final concentrations were prepared at DiscoverX.
# (§4) Potency of representative examples against the protein kinases MKK4, BRaf, MKK7 and JNK1 expressed as residual percent of control binding (PoC), was determined at a concentration of 100 nM. The determined potencies are categorized as follows:
# (§5) The binding selectivity of representative examples against the protein kinases BRaf, MKK7 and JNK1, altogether denominated as “off-targets” is determined by the ratios of PoC (off-target)/PoC (MKK4).
# MKK4 [1] = molecular target: T1, MKK4 (Homo sapiens, UniProt P45985); test: 33PanQinase enzyme assay, MKK4; type: biochemical; conditions: for remaining activity at 0.1 µM: read-out: Potency MKK4 (residual activity, assay at single concentration)
# T1 construct: purchased ProQinase GmbH, Freiburg, Germany (33PanQinase Assay Service)
# T1 sequence (P45985 1-399): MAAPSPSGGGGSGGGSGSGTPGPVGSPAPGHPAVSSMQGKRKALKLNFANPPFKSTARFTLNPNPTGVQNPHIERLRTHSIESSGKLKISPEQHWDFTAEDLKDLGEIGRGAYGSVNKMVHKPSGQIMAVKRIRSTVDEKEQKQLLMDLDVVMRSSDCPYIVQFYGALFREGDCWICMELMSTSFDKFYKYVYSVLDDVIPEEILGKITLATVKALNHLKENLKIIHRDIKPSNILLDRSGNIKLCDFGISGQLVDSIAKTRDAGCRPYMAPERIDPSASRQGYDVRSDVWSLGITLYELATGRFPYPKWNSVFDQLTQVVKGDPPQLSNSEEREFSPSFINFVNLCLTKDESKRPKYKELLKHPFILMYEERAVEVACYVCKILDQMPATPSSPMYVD
# Summary of the method: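 Inhibition measured as 33Pi transfer to substrate after a 60-min, 30 °C reaction, acid-stopped and scintillation-counted.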
# MKK7 = molecular target: T2, MKK7 (Homo sapiens, UniProt O14733); test: KINOMEscan competition binding assay, MKK7; parameters: M1/R419; host or cells: HEK-293; conditions: ratio PoC (off-target)/PoC (MKK4)
# T2 sequence (O14733 1-419): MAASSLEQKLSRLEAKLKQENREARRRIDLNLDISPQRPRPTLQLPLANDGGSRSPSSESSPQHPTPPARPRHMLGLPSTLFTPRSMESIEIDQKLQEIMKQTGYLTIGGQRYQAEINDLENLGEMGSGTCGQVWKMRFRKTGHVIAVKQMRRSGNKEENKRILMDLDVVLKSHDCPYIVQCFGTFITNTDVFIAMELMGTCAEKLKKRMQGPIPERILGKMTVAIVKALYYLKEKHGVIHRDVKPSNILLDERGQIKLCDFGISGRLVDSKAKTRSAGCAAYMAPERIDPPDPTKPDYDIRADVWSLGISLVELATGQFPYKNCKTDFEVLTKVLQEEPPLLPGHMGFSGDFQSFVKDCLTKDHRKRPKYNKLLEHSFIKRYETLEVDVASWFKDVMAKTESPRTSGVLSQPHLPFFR
# Procedure: as §1, §2, §3, §4, §5
# MKK4 [2] = molecular target: T3, MKK4 (Homo sapiens, UniProt P45985); test: KINOMEscan competition binding assay, MKK4; conditions: residual percent of control binding (PoC) at 100 nM
# T3 construct: S84/D399; host or cells: HEK-293
# T3 sequence (P45985 84-399): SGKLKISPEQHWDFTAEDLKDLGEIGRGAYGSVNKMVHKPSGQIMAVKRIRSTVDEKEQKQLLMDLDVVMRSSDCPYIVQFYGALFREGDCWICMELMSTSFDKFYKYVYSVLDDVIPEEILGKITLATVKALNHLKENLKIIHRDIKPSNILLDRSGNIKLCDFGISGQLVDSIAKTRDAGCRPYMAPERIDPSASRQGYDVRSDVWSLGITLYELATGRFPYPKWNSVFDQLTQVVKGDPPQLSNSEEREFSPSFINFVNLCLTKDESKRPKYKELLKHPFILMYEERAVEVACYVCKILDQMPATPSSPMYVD
# Procedure: as §1, §2, §3
# Potency of representative examples against the protein kinases MKK4, BRaf, MKK7 and JNK1 expressed as residual percent of control binding (PoC), was determined at a concentration of 100 nM. The determined potencies are categorized as follows: […]
# BRaf = molecular target: T4, BRaf (Homo sapiens, UniProt P15056); test: KINOMEscan competition binding assay, BRaf; conditions: ratio PoC (off-target)/PoC (MKK4)
# T4 construct: purchased ProQinase GmbH, Freiburg, Germany (33PanQinase Assay Service)
# Procedure: as §1, §2, §3, §4, §5
# JNK1, sequence (P45983 1-384 isoform P45983-2): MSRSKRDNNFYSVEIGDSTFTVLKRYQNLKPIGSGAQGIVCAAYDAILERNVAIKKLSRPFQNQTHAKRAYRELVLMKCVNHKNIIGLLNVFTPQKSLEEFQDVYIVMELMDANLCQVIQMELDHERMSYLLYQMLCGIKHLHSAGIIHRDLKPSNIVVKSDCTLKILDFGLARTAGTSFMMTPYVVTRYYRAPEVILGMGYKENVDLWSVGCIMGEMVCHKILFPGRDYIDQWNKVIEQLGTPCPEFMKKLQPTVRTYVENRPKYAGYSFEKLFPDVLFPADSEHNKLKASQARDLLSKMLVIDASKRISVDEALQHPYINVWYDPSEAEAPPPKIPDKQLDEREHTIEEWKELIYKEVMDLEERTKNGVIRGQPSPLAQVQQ
# T4 sequence (P15056 whole entry, species assumed): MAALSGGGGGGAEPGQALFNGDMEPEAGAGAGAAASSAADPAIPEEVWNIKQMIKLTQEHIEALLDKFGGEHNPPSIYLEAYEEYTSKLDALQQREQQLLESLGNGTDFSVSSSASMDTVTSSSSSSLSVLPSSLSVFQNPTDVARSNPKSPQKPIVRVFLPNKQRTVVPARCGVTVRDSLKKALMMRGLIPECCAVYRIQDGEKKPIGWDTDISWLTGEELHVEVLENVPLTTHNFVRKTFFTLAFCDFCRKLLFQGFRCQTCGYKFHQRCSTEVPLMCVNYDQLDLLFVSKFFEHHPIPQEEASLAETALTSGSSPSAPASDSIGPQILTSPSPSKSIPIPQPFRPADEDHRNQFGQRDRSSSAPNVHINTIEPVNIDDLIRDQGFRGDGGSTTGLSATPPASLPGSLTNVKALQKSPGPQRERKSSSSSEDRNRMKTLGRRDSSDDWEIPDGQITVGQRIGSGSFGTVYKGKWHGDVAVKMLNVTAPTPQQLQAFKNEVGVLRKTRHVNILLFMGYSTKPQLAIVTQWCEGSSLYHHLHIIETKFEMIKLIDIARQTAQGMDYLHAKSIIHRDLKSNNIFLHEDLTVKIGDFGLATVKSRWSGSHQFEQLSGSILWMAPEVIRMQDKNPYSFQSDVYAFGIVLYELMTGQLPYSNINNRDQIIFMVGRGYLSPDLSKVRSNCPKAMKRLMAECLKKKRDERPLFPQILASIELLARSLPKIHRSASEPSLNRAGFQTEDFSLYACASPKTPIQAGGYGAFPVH
selectivity based on % Ctrl @100 nM vs. JNK1 (JNK1),selectivity based on % Ctrl @100 nM vs. MKK7 (MKK7),MKK4 [% Ctrl @ 100 nM (MKK4 [2]),selectivity based on % Ctrl @100 nM vs. Braf (BRaf),remaining activity at 0.1 µM (MKK4 [1]; single concentration 100 nM) [%],"IC50 (MKK4 [1]; assay 'IC50', read-out: Potency MKK4 (IC50)) [µM]",SMILES,remaining activity at 0.1 µM (MKK4 [1]) [%]
◯ (3 ≥ Ratio),+ (10 ≥ ratio > 3),+ (3 ≤ PoC < 30),◯ (3 ≥ Ratio),70 to 90,–,CCCS(=O)(=O)Nc1ccc(F)c(C(=O)c2c[nH]c3ncc(-c4ccc5ccsc5c4)cc23)c1F [Example 51],–
+++ (Ratio > 100),+++ (Ratio > 100),+++ (PoC < 1),+++ (Ratio > 100),70 to 90,–,"O=C(c1c(F)ccc(NS(=O)(=O)Cc2ccccc2)c1F)c1c[nH]c2ncc(-c3ccc(OCC(O)CO)cc3)cc12 (stereo not shown) [Example 40, N-(3-(5-(4-(2,3-dihydroxypropoxy)phenyl)-1H-pyrrolo [2,3-b]pyridine-3-carbonyl)-2,4-difluorophenyl)-1-phenylmethanesulfonamide]",–
+ (10 ≥ ratio > 3),+ (10 ≥ ratio > 3),◯ (30 ≤ PoC),◯ (3 ≥ Ratio),> 90,–,"CCCS(=O)(=O)Nc1ccc(C#N)c(C(=O)c2c[nH]c3ncc(-c4ccc(Cl)cc4)cc23)c1F [Example 61, N-(3-(5-(4-chlorophenyl)-1H-pyrrolo[2,3-b]pyridine-3-carbonyl)-4-cyano-2-fluorophenyl)propane-1-sulfonamide]",–
◯ (3 ≥ Ratio),◯ (3 ≥ Ratio),◯ (30 ≤ PoC),◯ (3 ≥ Ratio),> 90,–,"O=C(c1c(F)ccc(NS(=O)(=O)CCCO)c1F)c1c[nH]c2ncc(-c3ccc(Cl)cc3)cc12 [Example 67, N-(3-(5-(4-chlorophenyl)-1H-pyrrolo[2,3-b]pyridine-3-carbonyl)-2,4-difluorophenyl)-3-hydroxypropane-1-sulfonamide]",–
++ (100 ≥ ratio > 10),++ (100 ≥ ratio > 10),++ (1 ≤ PoC < 3),+ (10 ≥ ratio > 3),–,1 to 10,CCCS(=O)(=O)Nc1ccc(F)c(C(=O)c2c[nH]c3ncc(-c4ccccn4)cc23)c1F [Example 47],–
++ (100 ≥ ratio > 10),++ (100 ≥ ratio > 10),+ (3 ≤ PoC < 30),++ (100 ≥ ratio > 10),70 to 90,–,"CCCS(=O)(=O)Nc1ccc(F)c(C(=O)c2c[nH]c3ncc(-c4ccccc4F)cc23)c1F [Example 34, N-(2,4-difluoro-3-(5-(2-fluorophenyl)-1H-pyrrolo[2,3-b]pyridine-3-carbonyl)phenyl)propane-1-sulfonamide]",–
◯ (3 ≥ Ratio),◯ (3 ≥ Ratio),◯ (30 ≤ PoC),◯ (3 ≥ Ratio),> 90,–,"CCCS(=O)(=O)Nc1ccc(C#N)c(C(=O)c2c[nH]c3ncc(-c4ccc(Cl)cc4)cc23)c1C#N [Example 62, N-(3-(5-(4-chlorophenyl)-1H-pyrrolo[2,3-b]pyridine-3-carbonyl)-2,4-dicyanophenyl)propane-1-sulfonamide]",–
++ (100 ≥ ratio > 10),++ (100 ≥ ratio > 10),+ (3 ≤ PoC < 30),++ (100 ≥ ratio > 10),70 to 90,–,"CCCS(=O)(=O)Nc1ccc(F)c(C(=O)c2c[nH]c3ncc(-c4ccc(F)cc4F)cc23)c1F [Example 33, N-(3-(5N-(2,4-difluorophenyl)-1H-pyrrolo[2,3-b]pyridine-3-carbonyl)-2,4-difluorophenyl)propane-1-sulfonamide]",–
++ (100 ≥ ratio > 10),++ (100 ≥ ratio > 10),+ (3 ≤ PoC < 30),+ (10 ≥ ratio > 3),–,–,"CCCS(=O)(=O)Nc1ccc(F)c(C(=O)c2c[nH]c3ncc(-c4ccc(OC)cc4OC)cc23)c1F [Example 104, N-(3-(5-(2,4-dimethoxyphenyl)-1H-pyrrolo[2,3-b]pyridine-3-carbonyl)-2,4-difluorophenyl)propane-1-sulfonamide]",–
+++ (Ratio > 100),+++ (Ratio > 100),+++ (PoC < 1),◯ (3 ≥ Ratio),–,–,"CCCS(=O)(=O)Nc1ccc(F)c(C(=O)c2c[nH]c3ncc(-c4ccc(OCC(O)CO)cc4)cc23)c1F (stereo not shown) [Example 31, N-(3-(5-(4-(2,3-dihydroxypropoxy)phenyl)-1H-pyrrolo[2,3-b]pyridine-3-carbonyl)-2,4-difluorophenyl)propane-1-sulfonamide]",–

SMILES,selectivity based on % Ctrl @100 nM vs. JNK1 (JNK1),selectivity based on % Ctrl @100 nM vs. MKK7 (MKK7),MKK4 [% Ctrl @ 100 nM (MKK4 [2]),selectivity based on % Ctrl @100 nM vs. Braf (BRaf),remaining activity at 0.1 µM (MKK4 [1]; single concentration 100 nM) [%],"IC50 (MKK4 [1]; assay 'IC50', read-out: Potency MKK4 (IC50)) [µM]",remaining activity at 0.1 µM (MKK4 [1]) [%]
"Cc1cccc(CS(=O)(=O)Nc2ccc(F)c(C(=O)c3c[nH]c4ncc(-c5ccc(Cl)cc5)cc34)c2F)c1 [Example 37, N-(3-(5-(4-chlorophenyl)-1H-pyrrolo[2,3-b]pyridine-3-carbonyl)-2,4-difluoro-phenyl)-1-(m-tolyl)methanesulfonamide]",+ (10 ≥ ratio > 3),+ (10 ≥ ratio > 3),+ (3 ≤ PoC < 30),+ (10 ≥ ratio > 3),–,–,70 to 90
"Cc1ccc(CS(=O)(=O)Nc2ccc(F)c(C(=O)c3c[nH]c4ncc(-c5ccc(Cl)cc5)cc34)c2F)cc1 [Example 38, N-(3-(5-(4-chlorophenyl)-1H-pyrrolo[2,3-b]pyridine-3-carbonyl)-2,4-difluoro-phenyl)-1-(p-tolyl)methanesulfonamide]",+ (10 ≥ ratio > 3),+ (10 ≥ ratio > 3),+ (3 ≤ PoC < 30),+ (10 ≥ ratio > 3),–,–,70 to 90

# Reference: patent US11912701B2, “Protein kinase inhibitors for promoting liver regeneration or reducing or preventing hepatocyte death” (HEPAREGENIX GMBH, priority 2018, dated 2024)
